3 compounds from PubChem BioAssay AID1988 (Broad Institute, 2009) can be followed below.

What is called EC50 is the concentration giving half of the maximal effect.

Inconclusive results are not listed.

This experiment deals with H4 cells, SNCA 5'UTR luciferase reporter translation. The experiment is described as follows: alpha-synuclein stem-loop luciferase translation blockers – luminescence, confirmation (AID 1988).
With `C=C(C=O)CC1CC(O)[C@]2(C)OC3CC4OC5C[C@]6(C)O[C@]7(C)CCC8OC9C[C@]%10(C)OC%11C(C)=CC(=O)OC%11CC%10OC9C[C@@H](C)C8OC7CC6O[C@]5(C)CC5OC5C4OC3CC2O1` (stereo partly drawn), the EC50 is 7.35 µM. `COc1ccc(O)c2c(=O)c3c(OC)cc4c(c3oc12)C1C=COC1O4` (stereo not drawn): the EC50 was below 0.1 µM.

For `C#CCOCCOCCOCCNc1nc(N2CCN(C(=O)CCCCCCCCCCNC(=O)[C@H](CO)n3cc(CCCSC)nn3)CC2)nc(N2CCN(C(=O)CCCCCCCCCCNC(=O)[C@H](CCCCN)n3cc(C[C@@H](C)CC)nn3)CC2)n1`, the EC50 was 7.11 µM.
